From US5888757A, “Cell wall assay” (Millennium Pharmaceuticals, Inc., priority 1996, dated 1999)

Experiments:
[1] = biological target: T1, CaCHS1p (chitin synthase of Candida albicans) (Candida albicans, UniProt P23316); assay: Chitin synthase inhibition assay (WGA capture / WGA-HRP detection of chitin synthesized in vitro); assay type: biochemical; conditions: inhibitor added over a range of concentrations, to a maximal concentration of 1 mM; FIG. 3
Excerpt: Preparation of CaCHS1p Membranes: In this example, chitin synthase was obtained from the S. cerevisiae strain 68-11-2C, transformed with the plasmid pJA16 (Bulawa et al., 1990, Proc. Natl. Acad. Sci. USA, 87:7424-7428 and Au-Young et al., 1990, Mol. Micro. 4:197-207). In strain 68-11-2C, the S. cerevisiae genes encoding chitin synthases 1 and 2 (CHS1 and CHS2, respectively) were genetically disrupted, rendering the strain deficient in production of these enzymes. The plasmid pJA16 encodes the chitin synthase gene of Candida albicans, and provides the only significant source of chitin in this assay.
Generally, the strain 68-1-2C/pJA16 is maintained on a supplemented SD medium. In this example, the cells were grown in 1 liter of SD medium for 48 hrs at 30° C. To provide good aeration, the culture was divided into two 500 ml cultures and grown in 2-liter flasks until the culture reached the stationary phase (i.e., until the OD600 of the culture reached 1.2-1.4). […] The cell walls then were broken by vortexing aliquots (2 ml) of the resuspended cells for 2 minutes with 3 ml of glass beads, according to conventional protocols. The cell extracts then were centrifuged for 5 minutes at 1,000×g, and the resulting supernatant was stored at -80° C. until it was used in the chitin synthase reactions described below. Frozen CaCHS1p membranes can be thawed at 30° C. […]

[2] = biological target: T1, CaCHS1p (chitin synthase of Candida albicans); conditions: known relative potency, Nikkomycin Z versus Asperfuran; cited from earlier work

T1 sequence (P23316 whole entry): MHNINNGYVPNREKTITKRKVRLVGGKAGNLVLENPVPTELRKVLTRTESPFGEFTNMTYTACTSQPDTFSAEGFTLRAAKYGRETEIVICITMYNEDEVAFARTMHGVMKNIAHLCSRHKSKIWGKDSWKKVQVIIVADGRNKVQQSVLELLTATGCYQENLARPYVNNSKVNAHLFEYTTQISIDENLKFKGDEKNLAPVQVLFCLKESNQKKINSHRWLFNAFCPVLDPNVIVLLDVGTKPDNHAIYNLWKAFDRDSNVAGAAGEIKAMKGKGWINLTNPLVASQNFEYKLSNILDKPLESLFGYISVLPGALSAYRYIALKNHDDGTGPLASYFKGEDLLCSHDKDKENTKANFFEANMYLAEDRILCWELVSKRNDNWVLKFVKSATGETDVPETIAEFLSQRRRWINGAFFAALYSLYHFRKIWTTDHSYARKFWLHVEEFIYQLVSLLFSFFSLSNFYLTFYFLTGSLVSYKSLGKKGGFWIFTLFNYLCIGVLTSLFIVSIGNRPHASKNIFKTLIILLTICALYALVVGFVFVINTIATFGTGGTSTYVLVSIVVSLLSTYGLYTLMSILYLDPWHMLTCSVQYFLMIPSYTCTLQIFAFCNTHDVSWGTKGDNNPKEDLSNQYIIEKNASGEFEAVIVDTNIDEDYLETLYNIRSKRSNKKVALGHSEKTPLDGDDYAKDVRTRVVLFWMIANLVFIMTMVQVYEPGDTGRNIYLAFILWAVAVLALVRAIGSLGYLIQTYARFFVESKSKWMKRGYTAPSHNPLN

SMILES | inhibition of chitin synthase [1] | relative potency as inhibitor of CaCHS1p activity [2]
C/C=C/C=C/[C@H]1Cc2cc(O)cc(O)c2O1 [Asperfuran] | an increase in the concentration of either of these chitin synthase inhibitors causes an increase in the inhibition of chitin synthase | 
C[C@@H]([C@H](N)C(=O)N[C@H](C(=O)O)[C@H]1O[C@@H](n2ccc(=O)[nH]c2=O)[C@H](O)[C@@H]1O)[C@H](O)c1ccc(O)cn1 [Nikkomycin Z] | an increase in the concentration of either of these chitin synthase inhibitors causes an increase in the inhibition of chitin synthase | more potent inhibitor of CaCHS1p activity than is Asperfuran
